Biological target: T1, GFP-HIBCH (3-hydroxyisobutyryl-CoA hydrolase) (Homo sapiens, UniProt Q6NVY1)
T1 construct: GFP fusion of HIBCH
T1 sequence (Q6NVY1 1-386): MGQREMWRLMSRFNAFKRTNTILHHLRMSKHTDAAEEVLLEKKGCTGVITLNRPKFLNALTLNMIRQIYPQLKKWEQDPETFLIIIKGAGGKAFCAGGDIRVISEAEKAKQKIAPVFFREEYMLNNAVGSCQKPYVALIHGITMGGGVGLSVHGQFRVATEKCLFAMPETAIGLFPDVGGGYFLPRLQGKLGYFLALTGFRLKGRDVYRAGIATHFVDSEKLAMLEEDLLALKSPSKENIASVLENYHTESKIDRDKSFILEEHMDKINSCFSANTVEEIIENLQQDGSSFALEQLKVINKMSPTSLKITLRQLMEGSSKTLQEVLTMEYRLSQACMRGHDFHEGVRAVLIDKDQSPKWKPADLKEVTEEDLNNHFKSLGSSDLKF
Experiment: microscale thermophoresis
Format: binding
Settings: GFP-tagged HIBCH; fit of three independent measurements

Kd: 35.9 µM
SMILES: CCCCCCCCCCCCOC(=O)[C@@H](C)[C@@]1(O)[C@@H](O[C@@H]2OC[C@H](O)[C@H](O[C@@H]3OC[C@@H](O)[C@H](O)[C@H]3OC(=O)c3ccc(OC)cc3)[C@H]2OC(C)=O)C[C@H]2[C@@H]3CC=C4C[C@@H](O)CC[C@]4(C)[C@H]3CC[C@@]21C [SBF-1]

— PMC6692300, “Targeting HIBCH to reprogram valine metabolism for the treatment of colorectal cancer” (Cell Death & Disease, 2019)
